# Data: ChEMBL document CHEMBL5465560, “Selectivity Literature for EUbOPEN Chemogenomic Library” (2024)
# Tests used:
# [1] = Selectivity interaction (Kinase panel (KiNativ target engagement assay in Jurkat cells)) EUB0001635a STLK6; conditions: Selectivity number of off-targets 0; Selectivity number of targets 233; Source Knowledge https://www.sciencedirect.com/science/article/pii/S2451945619300674?via%3Dihub; at 1 µM
# [2] = target: Macrophage colony-stimulating factor 1 receptor (Homo sapiens) (UniProt P07333); assay: Selectivity interaction (KinomeScan (DiscoverX)) EUB0000045b CSF1R
# Macrophage colony-stimulating factor 1 receptor (Homo sapiens), sequence (P07333 whole entry): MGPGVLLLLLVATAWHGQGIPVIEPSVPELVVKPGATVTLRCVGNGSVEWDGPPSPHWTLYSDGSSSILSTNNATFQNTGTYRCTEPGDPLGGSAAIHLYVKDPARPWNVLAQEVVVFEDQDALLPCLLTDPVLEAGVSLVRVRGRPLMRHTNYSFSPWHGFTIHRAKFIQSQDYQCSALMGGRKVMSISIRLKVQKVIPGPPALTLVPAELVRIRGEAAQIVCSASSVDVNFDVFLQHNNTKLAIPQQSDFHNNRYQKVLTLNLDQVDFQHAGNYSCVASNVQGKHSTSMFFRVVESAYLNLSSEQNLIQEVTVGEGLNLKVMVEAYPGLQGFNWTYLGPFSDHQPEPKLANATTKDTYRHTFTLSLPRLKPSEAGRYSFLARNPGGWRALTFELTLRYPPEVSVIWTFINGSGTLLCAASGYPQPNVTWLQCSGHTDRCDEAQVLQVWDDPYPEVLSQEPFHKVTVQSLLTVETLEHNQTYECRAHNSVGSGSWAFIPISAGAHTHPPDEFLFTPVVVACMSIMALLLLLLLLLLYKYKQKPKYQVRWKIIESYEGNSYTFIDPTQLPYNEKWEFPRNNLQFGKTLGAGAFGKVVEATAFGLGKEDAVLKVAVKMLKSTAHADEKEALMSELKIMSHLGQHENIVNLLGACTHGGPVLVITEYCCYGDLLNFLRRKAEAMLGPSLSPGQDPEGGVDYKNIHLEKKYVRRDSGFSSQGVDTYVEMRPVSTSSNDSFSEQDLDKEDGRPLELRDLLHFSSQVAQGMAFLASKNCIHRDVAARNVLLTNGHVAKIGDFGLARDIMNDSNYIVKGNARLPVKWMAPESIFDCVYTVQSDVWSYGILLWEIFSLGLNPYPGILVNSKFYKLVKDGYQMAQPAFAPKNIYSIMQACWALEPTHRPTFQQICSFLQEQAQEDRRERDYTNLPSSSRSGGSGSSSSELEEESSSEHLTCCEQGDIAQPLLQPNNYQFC
# [3] = target: Serine/threonine-protein kinase PLK3 (Homo sapiens, UniProt Q9H4B4); assay: Selectivity interaction (KinomeScan (DiscoverX)) EUB0000045b PLK3
# Serine/threonine-protein kinase PLK3, sequence (Q9H4B4 whole entry, looked up): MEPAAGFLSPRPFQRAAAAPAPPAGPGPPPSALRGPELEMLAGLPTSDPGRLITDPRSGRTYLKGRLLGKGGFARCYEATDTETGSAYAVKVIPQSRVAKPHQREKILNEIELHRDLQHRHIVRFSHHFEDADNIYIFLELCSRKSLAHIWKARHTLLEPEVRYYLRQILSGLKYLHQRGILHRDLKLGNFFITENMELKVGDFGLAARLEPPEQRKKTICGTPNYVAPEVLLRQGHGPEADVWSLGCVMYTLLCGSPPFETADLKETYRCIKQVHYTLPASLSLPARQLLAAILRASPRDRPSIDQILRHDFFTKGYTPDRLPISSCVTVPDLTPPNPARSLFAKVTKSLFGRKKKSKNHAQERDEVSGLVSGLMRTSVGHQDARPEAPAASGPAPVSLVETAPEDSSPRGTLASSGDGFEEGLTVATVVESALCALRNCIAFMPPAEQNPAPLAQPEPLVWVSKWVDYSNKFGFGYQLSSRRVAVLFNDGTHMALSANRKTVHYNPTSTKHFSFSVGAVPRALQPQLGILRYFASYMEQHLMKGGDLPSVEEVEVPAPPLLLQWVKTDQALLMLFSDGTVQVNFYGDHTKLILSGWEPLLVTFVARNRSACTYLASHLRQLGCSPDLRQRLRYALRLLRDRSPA
# [4] = target: Serine/threonine-protein kinase MRCK beta (Homo sapiens) (UniProt Q9Y5S2); assay: Selectivity interaction (KinomeScan (DiscoverX)) EUB0001079a CDC42BPB; conditions: at 1 µM
# [5] = target: Tyrosine-protein kinase Fgr (Homo sapiens) (UniProt P09769); assay: Selectivity interaction (KinomeScan (DiscoverX)) EUB0001079a FGR; conditions: at 1 µM
# Tyrosine-protein kinase Fgr (Homo sapiens), sequence (P09769 2-529 limits assumed): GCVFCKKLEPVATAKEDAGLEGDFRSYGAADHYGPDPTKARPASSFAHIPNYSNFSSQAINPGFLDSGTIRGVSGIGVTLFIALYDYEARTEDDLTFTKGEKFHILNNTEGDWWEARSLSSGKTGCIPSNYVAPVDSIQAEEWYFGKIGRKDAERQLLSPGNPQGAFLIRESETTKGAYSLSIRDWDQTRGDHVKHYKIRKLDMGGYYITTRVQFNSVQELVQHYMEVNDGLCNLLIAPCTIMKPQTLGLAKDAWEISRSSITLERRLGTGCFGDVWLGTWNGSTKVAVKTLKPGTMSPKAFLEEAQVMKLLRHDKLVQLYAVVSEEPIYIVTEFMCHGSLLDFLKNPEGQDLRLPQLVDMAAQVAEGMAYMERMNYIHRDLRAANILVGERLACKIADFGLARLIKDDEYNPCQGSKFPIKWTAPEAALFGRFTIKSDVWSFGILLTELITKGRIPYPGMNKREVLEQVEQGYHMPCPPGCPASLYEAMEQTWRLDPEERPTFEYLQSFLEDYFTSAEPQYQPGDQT
# [6] = target: T1, Tyrosine-protein kinase receptor TYRO3 (Homo sapiens) (UniProt Q06418); assay: Selectivity interaction (KinomeScan (DiscoverX)) EUB0001079a TYRO3; conditions: at 1 µM
# T1 sequence (whole entry): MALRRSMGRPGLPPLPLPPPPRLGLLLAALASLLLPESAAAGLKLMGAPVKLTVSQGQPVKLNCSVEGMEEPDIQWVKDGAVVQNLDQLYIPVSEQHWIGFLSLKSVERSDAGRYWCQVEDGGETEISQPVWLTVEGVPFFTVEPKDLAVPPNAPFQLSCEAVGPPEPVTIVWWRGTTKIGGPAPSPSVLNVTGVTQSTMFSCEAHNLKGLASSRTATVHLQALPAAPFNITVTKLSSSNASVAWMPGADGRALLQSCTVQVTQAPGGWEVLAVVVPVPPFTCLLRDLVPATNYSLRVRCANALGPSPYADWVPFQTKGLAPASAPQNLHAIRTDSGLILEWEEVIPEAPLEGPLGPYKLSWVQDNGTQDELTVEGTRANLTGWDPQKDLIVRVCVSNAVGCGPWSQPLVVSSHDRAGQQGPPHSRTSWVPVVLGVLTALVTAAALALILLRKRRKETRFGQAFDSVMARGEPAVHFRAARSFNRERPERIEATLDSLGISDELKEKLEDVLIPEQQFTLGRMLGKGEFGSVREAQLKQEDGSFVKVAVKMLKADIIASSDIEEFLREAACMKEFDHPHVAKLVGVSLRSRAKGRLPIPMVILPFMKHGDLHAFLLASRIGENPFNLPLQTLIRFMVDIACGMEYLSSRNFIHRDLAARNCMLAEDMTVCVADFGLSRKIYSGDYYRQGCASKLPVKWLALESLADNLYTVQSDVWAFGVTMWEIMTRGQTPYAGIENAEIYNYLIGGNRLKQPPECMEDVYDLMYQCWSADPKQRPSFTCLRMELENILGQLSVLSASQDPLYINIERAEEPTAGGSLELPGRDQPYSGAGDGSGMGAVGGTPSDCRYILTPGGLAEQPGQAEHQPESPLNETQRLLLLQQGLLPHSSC
# [7] = target: Histone acetyltransferase p300 (Homo sapiens) (UniProt Q09472); assay: Selectivity interaction (Bromodomain panel (DSF asssay)) EUB0000270b EP300
# Histone acetyltransferase p300 (Homo sapiens), sequence (Q09472 whole entry): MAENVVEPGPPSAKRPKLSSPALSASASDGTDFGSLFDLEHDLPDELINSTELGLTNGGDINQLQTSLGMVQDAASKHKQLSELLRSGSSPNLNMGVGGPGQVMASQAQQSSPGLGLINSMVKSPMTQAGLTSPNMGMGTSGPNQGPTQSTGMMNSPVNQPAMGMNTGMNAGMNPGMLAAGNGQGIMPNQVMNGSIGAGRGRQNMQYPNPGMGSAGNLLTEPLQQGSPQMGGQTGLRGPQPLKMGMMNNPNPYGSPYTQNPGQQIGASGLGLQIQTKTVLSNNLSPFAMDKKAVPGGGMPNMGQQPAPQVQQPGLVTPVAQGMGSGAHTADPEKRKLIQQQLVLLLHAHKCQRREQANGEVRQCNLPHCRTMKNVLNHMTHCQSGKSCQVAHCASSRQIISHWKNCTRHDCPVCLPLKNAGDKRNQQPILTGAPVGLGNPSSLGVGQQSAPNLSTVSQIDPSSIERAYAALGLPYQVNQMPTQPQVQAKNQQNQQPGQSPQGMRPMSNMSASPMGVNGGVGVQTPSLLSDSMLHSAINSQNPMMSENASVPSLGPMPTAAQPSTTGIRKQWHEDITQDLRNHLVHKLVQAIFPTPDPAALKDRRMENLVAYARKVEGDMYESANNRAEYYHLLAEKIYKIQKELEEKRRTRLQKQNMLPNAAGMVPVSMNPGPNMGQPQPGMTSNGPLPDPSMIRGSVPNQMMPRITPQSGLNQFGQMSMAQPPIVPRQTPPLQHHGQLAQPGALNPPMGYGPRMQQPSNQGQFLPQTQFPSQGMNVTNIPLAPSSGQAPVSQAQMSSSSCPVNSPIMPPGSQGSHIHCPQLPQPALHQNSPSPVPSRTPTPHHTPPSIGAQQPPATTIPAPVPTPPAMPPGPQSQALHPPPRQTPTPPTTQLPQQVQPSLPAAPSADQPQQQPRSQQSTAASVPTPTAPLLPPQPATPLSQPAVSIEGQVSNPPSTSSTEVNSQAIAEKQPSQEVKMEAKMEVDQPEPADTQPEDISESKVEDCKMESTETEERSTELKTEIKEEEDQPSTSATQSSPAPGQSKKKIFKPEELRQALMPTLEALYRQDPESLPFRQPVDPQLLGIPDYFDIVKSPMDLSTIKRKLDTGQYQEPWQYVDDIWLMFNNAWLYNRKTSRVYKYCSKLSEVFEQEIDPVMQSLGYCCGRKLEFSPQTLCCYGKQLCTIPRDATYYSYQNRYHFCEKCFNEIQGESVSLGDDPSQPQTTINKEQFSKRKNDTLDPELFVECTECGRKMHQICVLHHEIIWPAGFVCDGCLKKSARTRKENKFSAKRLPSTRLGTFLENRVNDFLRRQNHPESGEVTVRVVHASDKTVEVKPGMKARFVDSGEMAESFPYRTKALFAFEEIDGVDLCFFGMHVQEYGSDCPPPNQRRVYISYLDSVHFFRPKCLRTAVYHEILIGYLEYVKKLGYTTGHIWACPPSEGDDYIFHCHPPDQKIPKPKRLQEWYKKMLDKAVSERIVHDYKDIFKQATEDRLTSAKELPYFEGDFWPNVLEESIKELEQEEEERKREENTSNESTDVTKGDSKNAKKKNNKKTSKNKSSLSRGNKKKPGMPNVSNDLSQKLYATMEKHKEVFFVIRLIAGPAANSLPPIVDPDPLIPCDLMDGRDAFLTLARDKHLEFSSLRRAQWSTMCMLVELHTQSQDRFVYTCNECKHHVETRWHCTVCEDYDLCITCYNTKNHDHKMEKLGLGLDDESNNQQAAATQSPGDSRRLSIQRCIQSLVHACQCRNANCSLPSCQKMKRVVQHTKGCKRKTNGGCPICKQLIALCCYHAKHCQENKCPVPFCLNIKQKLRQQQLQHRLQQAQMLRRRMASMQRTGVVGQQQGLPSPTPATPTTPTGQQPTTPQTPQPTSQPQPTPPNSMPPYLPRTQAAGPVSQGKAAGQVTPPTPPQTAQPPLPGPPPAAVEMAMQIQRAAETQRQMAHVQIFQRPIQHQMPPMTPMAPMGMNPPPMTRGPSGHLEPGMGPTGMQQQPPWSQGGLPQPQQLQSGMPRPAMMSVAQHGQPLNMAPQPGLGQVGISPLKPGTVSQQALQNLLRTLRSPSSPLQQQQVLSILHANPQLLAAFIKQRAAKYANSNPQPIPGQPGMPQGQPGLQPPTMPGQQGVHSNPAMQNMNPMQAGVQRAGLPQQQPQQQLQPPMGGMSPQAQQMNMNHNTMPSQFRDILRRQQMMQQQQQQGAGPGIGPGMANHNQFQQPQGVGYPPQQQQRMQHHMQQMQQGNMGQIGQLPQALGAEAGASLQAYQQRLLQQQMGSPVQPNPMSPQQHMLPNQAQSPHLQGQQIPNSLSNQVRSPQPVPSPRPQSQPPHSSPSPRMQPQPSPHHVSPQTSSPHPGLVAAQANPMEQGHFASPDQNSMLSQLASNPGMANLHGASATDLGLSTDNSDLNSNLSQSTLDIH
# [8] = target: T2, Dual specificity mitogen-activated protein kinase kinase 7 (Homo sapiens) (UniProt O14733); assay: Selectivity interaction (Upstate Kinase Profiler service (Millipore)) EUB0000056c MAP2K7; conditions: at 1 µM
# T2 sequence (whole entry): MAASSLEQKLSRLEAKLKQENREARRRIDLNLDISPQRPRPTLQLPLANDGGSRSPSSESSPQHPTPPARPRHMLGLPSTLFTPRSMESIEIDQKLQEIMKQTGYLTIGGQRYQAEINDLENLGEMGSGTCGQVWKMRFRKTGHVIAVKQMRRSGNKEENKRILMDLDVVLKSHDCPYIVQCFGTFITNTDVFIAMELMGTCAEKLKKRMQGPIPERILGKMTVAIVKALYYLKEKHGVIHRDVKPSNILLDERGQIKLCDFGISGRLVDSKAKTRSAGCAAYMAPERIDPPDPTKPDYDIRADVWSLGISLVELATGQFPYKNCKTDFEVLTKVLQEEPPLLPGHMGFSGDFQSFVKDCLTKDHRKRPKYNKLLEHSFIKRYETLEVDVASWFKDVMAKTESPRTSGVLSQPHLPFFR
# [9] = target: Serine/threonine-protein kinase mTOR (Homo sapiens, UniProt P42345); assay: Selectivity interaction (ProQinase) EUB0000171b MTOR
# [10] = target: Ribosomal protein S6 kinase beta-2 (Homo sapiens) (UniProt Q9UBS0); assay: Selectivity interaction (ActivX KiNativ screen (ex vivo kinase selectivity in human PBMCs)) EUB0001619a RPS6KB2; assay type: cell-based; conditions: PBMC, at 1 µM
# Ribosomal protein S6 kinase beta-2 (Homo sapiens), sequence (Q9UBS0 whole entry): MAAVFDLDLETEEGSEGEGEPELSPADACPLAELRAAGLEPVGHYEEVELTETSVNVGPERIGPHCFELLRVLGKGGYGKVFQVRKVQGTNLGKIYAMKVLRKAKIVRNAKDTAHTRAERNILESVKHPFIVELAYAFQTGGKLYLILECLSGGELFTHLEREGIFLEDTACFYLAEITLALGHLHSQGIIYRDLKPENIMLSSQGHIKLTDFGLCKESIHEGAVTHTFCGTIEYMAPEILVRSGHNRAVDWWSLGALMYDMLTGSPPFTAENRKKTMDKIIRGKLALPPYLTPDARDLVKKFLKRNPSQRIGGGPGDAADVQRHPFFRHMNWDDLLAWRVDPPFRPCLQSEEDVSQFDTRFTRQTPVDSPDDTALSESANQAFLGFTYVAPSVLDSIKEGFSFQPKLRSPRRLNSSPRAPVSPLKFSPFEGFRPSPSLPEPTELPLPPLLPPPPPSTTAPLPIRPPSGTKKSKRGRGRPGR
# [11] = target: T3, Mitogen-activated protein kinase 13 (Homo sapiens) (UniProt O15264); assay: Selectivity interaction (Kinase panel (literature)) EUB0001199aCl MAPK13; conditions: at 1 µM
# T3 sequence (whole entry): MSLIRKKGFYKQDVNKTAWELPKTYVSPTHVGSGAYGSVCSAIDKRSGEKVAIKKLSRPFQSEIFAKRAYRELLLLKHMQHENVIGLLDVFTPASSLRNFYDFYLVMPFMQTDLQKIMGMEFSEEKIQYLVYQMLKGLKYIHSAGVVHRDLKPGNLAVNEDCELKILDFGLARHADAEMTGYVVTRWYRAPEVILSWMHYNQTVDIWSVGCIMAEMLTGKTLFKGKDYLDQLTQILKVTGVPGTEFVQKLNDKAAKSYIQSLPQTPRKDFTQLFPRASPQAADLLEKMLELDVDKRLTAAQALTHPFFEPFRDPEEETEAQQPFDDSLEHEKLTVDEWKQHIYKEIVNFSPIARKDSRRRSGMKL
# [12] = target: MAP kinase-interacting serine/threonine-protein kinase 1 (Homo sapiens) (UniProt Q9BUB5); assay: Selectivity interaction (Kinase panel (literature)) EUB0001199aCl MKNK1; conditions: at 1 µM
compound,measurement,setting,value
C=CC(=O)Nc1ccc(C(=O)Nc2[nH]nc3c2CN(C(=O)N[C@H](CN(C)C)c2ccccc2)C3(C)C)cc1,% of engagement,[1],-9%
C=CC(=O)Nc1cc(-n2c(=O)ccc3cnc4ccc(-c5ccc(NS(C)(=O)=O)cc5)cc4c32)ccc1C,% of control,[2]; at 1 µM,94%
same,% of control,[2]; at 10 µM,87%
same,% of control,[3]; at 1 µM,100%
same,% of control,[3]; at 10 µM,100%
Nc1cnc(N2CCc3cc(S(=O)(=O)Nc4c(F)cc(Cl)cc4F)cc(N4CCCC4=O)c32)nc1 [TP-020n],% of control,[4],95%
same,% of control,[5],100%
same,% of control,[6],100%
Cc1cc(CN)cc(C)c1-c1ncn(C)c1-c1cncn1C,dTM,[7],-1.45 K
Cc1ccc(-c2ccc3c(ccc4sc5c(c43)NC[C@@H](C)NC5=O)n2)cn1,% of inhibition,[8],-8%
C=CC(=O)Nc1cccc(C(=O)Nc2ccc(Nc3cc(-c4[nH]c(SC)nc4C)ccn3)cc2)c1,% of control,[9]; at 1 µM,88%
same,% of control,[9]; at 5 µM,91%
N#Cc1cccc(-c2c[nH]c3ncnc(N4CCOCC4)c23)c1,% of inhibition,[10],19%
CN1Cc2nccc(-c3cn(C)nc3-c3ccc(F)cc3)c2C1=O,% of inhibition,[11],10%
same,% of inhibition,[12],-1%
